Source: patent publication EP0348560A1, “Oral composition” (LION CORPORATION, priority 1988, dated 1990)

System: Streptococcus mutans (strain 6715)
Assay: Incubation Adhesion Method: inhibition of dental plaque formation
Type: cell-based
Settings: for Synergistic effect: class by inhibiting rate; for formation of dental plaque: combined with α-bisabolol, conclusion in words from Table 1
Protocol: α-Bisabolol, menthol, eugenol, 3-octanol, methyl salicylate, carvone and cineol are used as samples to evaluate their effects on inhibiting the formation of dental plaque by Incubation Adhesion Method.
Incubation Adhesion Method
A predetermined amount (0, 4 or 8 µg/mℓ) of α-bisabolol and 125 µg/mℓ of menthol, eugenol, 3-octanol, methyl salicylate, carvone or cineol were added to a BHI (brain heart infusion) medium containing 1% of sucrose. Then, Streptococcus mutans (strain 6715) was inoculated to the medium and incubated at 37°C for 16 hours under an anaerobic condition (N₂: CO₂ :H₂ = 80:10:10). After incubation, the resulting dental plaque was washed twice with water and dispersed in the same amount of 0.5-N NaOH solution. To determine the amount of dental plaque formed, the suspension of dental plaque was examined for absorbance (turbidity) at a wavelength of 550 nm.
Inhiviting rate of dental plaque formation (%) [formula] A : Absorbance (O.D. 550nm) of the control B : Absorbance (O.D. 550nm) of the sample

[1] = 125 µg/mℓ sample alone, content of α-bisabolol 0 µg/mℓ, BHI medium with 1% sucrose, 37°C, 16 hours, anaerobic
[2] = 125 µg/mℓ sample combined with α-bisabolol 4 µg/mℓ, BHI medium with 1% sucrose, 37°C, 16 hours, anaerobic
[3] = 125 µg/mℓ sample combined with α-bisabolol 4 µg/mℓ
[4] = 125 µg/mℓ sample combined with α-bisabolol 8 µg/mℓ, BHI medium with 1% sucrose, 37°C, 16 hours, anaerobic
[5] = 125 µg/mℓ sample combined with α-bisabolol 8 µg/mℓ
[6] = α-bisabolol 4 µg/mℓ alone (line 'Control', no sample added)
[7] = α-bisabolol 8 µg/mℓ alone (line 'Control', no sample added)

Row | Compound | Amount of dental plaque formation (O.D., 550nm) [1] [O.D.] | Inhibiting rate of dental plaque formation (%) [1] [%] | Amount of dental plaque formation (O.D., 550nm) [2] [O.D.] | Inhibiting rate of dental plaque formation (%) [2] [%] | Synergistic effect [3] | Amount of dental plaque formation (O.D., 550nm) [4] [O.D.] | Inhibiting rate of dental plaque formation (%) [4] [%] | Synergistic effect [5] | formation of dental plaque | Amount of dental plaque formation (O.D., 550nm) [6] [O.D.] | Inhibiting rate of dental plaque formation (%) [6] [%] | Amount of dental plaque formation (O.D., 550nm) [7] [O.D.] | Inhibiting rate of dental plaque formation (%) [7] [%]
1 | CCCCCC(O)CC (stereo not shown) [3-Octanol, 3-octanol] | 0.59 | 4.8 | 0.58 | 6.5 | × (Inhibiting rate is less than 20%) | 0.06 | 90.3 | ⓞ (Inhibiting rate is not less than 80%) | synergistically suppressed | – | – | – | –
2 | C=C(C)C1CC=C(C)C(=O)C1 (stereo not shown) [Carvone, carvone, reference compound] | 0.62 | 0 | 0.60 | 3.2 | × (Inhibiting rate is less than 20%) | 0.42 | 32.3 | Δ (Inhibiting rate is not less than 20%, less than 50 %) | – | – | – | – | –
3 | CC12CCC(CC1)C(C)(C)O2 [Cineol, cineol, reference compound] | 0.62 | 0 | 0.59 | 4.8 | × (Inhibiting rate is less than 20%) | 0.53 | 14.5 | × (Inhibiting rate is less than 20%) | – | – | – | – | –
4 | C=CCc1ccc(O)c(OC)c1 [Eugenol, eugenol] | 0.62 | 0 | 0.60 | 3.2 | × (Inhibiting rate is less than 20%) | 0.02 | 96.8 | ⓞ (Inhibiting rate is not less than 80%) | synergistically suppressed | – | – | – | –
5 | CC1CCC(C(C)C)C(O)C1 (stereo not shown) [Menthol, menthol] | 0.60 | 3.2 | 0.01 | 98.4 | ⓞ (Inhibiting rate is not less than 80%) | 0.01 | 98.4 | ⓞ (Inhibiting rate is not less than 80%) | synergistically suppressed | – | – | – | –
6 | COC(=O)c1ccccc1O [Methyl salicylate, methyl salicylate, reference compound] | 0.61 | 1.6 | 0.61 | 1.6 | × (Inhibiting rate is less than 20%) | 0.39 | 37.1 | Δ (Inhibiting rate is not less than 20%, less than 50 %) | – | – | – | – | –
7 | α-bisabolol | – | – | – | – | – | – | – | – | – | 0.61 | 1.6 | 0.60 | 3.2
